Measured values from patent US12637440B2, “Amide derivative useful as diacylglycerol acyltransferase 2 inhibitor, and use thereof” (LG CHEM, LTD., priority 2019, dated 2026).

Biological target: T1, Recombinant human DGAT2 protein (Homo sapiens, UniProt Q96PD7)
T1 construct: FLAG (DYKDDDDK); (N); made in house; host or cells: Sf-21 insect cells (BacPAK baculovirus system); used as a membrane preparation
T1 sequence (Q96PD7 1-388): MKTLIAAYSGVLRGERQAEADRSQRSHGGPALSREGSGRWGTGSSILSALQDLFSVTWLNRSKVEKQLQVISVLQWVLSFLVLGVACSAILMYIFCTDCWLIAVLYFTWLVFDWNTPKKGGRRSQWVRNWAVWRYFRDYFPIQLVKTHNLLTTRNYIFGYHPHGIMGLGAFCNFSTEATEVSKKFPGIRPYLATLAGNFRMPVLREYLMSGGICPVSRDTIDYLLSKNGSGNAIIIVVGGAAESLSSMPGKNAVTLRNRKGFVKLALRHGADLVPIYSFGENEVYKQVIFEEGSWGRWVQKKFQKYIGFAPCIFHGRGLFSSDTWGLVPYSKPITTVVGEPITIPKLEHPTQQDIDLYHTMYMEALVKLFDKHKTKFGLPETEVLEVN
Assay: Measurement of inhibitory effect against DGAT2 enzyme activity (SPA, Phospholipid FlashPlate, [14C]-TG production)
Format: biochemical
Details: concentration inhibiting [14C]-labeled triacyl glycerol (TG) production by 50%; 2 μg DGAT2-membrane protein from Sf-21 cells, 37° C.
Experimental: Experimental Example: Measurement of Inhibitory Effect Against DGAT2 Enzyme Activity
In order to prepare the pBacPAK9-DGAT2, which is DGAT2 expression vector, the human DGAT2 gene amplified by polymerase chain reaction (PCR) was cloned into the EcoR1 and Xho1 sites of the pBacPAK9 (clonctech) vector. The nucleotide sequence of the primers used in PCR was the forward primer 5′ […] and the reverse primer 5′ […]. The composition of the reaction solution was to contain 50 ng of cDNA clone (OriGene), 200 μM of dATP, dCTP, dTTP, dGTP, 200 nM of each primer, 1 unit of Tag DNA Polymerase (Toyobo), 1×PCR buffer, and the final volume was adjusted to 20 μl. The reaction conditions were denatured at 95° C. for 5 minutes, followed by 30 times of 94° C. for 20 seconds, 60° C. for 20 seconds, and 72° C. for 90 seconds, followed by further reaction at 72° C. for 7 minutes.
Recombinant human DGAT2 protein was expressed in Sf-21 cells, which are insect cells, by using the BacPack baculovirus expression system (Clontech). The brief manufacturing process is as follows. First, the pBacPAK9-DGAT2 expression vector was transfected with BacPAK6 virus DNA (Bsu36I digest) into sf21 cells using Bacfectin to prepare a recombinant DGAT2 expressing baculovirus. The thus prepared baculovirus was infected with Sf-21 cells at 10 MOI (multiplicity of infection), and after 72 hours, infected insect cells were collected and membrane proteins were isolated. For membrane protein separation, the cell pellet was dissolved in a sucrose solution containing 250 mM sucrose, 10 mM Tris (pH 7.4), and 1 mM ethylenediamine-tetraacetic acid (EDTA), and then homogenized by using a dounce homogenizer, and the supernatant was taken by centrifuging at 600×g for 15 minutes, and centrifuged at 100,000×g for 1 hour to discard the supernatant, and the remaining pellet was resuspended in 20 mM HEPES buffer (pH 7.4). The prepared DGAT2 overexpressing membrane protein was dispensed in 100 μl and stored at −80° C. until use. Protein concentration was quantified by using the BCA Protein Assay Kit (Thermo Scientific).
In vitro DGAT2 analysis was performed using a Phospholipid Flash Plate (PerkinElmer) based on the principle of SPA (Scintillation Proximity Assay). First, DGAT2 inhibition compounds serially diluted 5 times from 3 nM to 10 μM (final concentration, 1% DMSO) were mixed in a buffer solution containing 2 μg DGAT2-membrane protein and 20 mM HEPES, 20 mM MgCl2, 1 mg/mL BSA, 50 μM 1,2 sn-oleoyl glycerol (Sigma), put in a 96-well flash plate (FlashPlate) and reacted at 37° C. for 20 minutes, and then 1 μM [14C] ole oil CoA (PerkinElmer, NEC651050UC) was added to be a final volume of 100 μL and further reacted at 37° C. for 15 minutes. After the enzymatic reaction was completed, 100 μL of isopropanol was added, the plate was sealed with a film, and the plate was shaken slowly in a plate shaker. The next day, the amplified scintillation signal (cpm) in Topcounter (Packard) was measured to measure the degree of production of [14C]-labeled triacyl glycerol (TG) as a reaction product. The measured value when the compound was not treated was used as a positive control, and the measured value of the compound treated group was calculated as a relative % to measure the inhibition effect of the compound on TG production.

Row | SMILES | IC50 [nM]
1 | CCOc1ccccc1O[C@@H]1CCCN(c2cncc(NC(=O)Cc3cccc(Cl)c3)n2)C1 [Example 30, (R)-2-(3-chlorophenyl)-N-(6-(3-(2-ethoxyphenoxy)piperidin-1-yl)pyrazin-2-yl)acetamide] | 29
2 | CCOc1ccccc1O[C@@H]1CCCN(c2cncc(NC(=O)C(C)(C)c3ccccc3)n2)C1 [Example 31, (R)—N-(6-(3-(2-ethoxyphenoxy)piperidin-1-yl)pyrazin-2-yl)-2-methyl-2-phenylpropanamide] | 180
3 | CCOc1ccccc1O[C@@H]1CCCN(c2cncc(NC(=O)Cc3cccc(C(=O)O)c3)n2)C1 [Example 33, (R)-3-(2-((6-(3-(2-ethoxyphenoxy)piperidin-1-yl)pyrazin-2-yl)amino)-2-oxoethyl)benzoic acid] | 4500
4 | CCOc1ccccc1O[C@@H]1CCCN(c2cncc(NC(=O)Cc3ccc(CC(=O)O)cc3)n2)C1 [Example 34, (R)-2-(4-(2-((6-(3-(2-ethoxyphenoxy)piperidin-1-yl)pyrazin-2-yl)amino)-2-oxoethyl)phenyl)acetic acid] | 1100
5 | CCOc1ccccc1O[C@@H]1CCCN(c2cncc(NC(=O)Cc3ccc(CC(N)=O)cc3)n2)C1 [Example 35] | 30
6 | CCOc1ccccc1O[C@@H]1CCCN(c2cncc(NC(=O)Cc3ccc(O)cc3)n2)C1 [Example 36, (R)—N-(6-(3-(2-ethoxyphenoxy)piperidin-1-yl)pyrazin-2-yl)-2-(4-hydroxyphenyl)acetamide] | 12
7 | CCOc1ccccc1O[C@@H]1CCCN(c2cncc(NC(=O)Cc3ccc(OCCCC(=O)O)cc3)n2)C1 [Example 37, (R)-4-(4-(2-((6-(3-(2-ethoxyphenoxy)piperidin-1-yl)pyrazin-2-yl)amino)-2-oxoethyl)phenoxy)butanoic acid] | 460
8 | CCOc1ccccc1O[C@@H]1CCCN(c2cncc(NC(=O)Cc3ccc(OC(C)(C)C(=O)O)cc3)n2)C1 [Example 38] | 200
9 | CCOc1ccccc1O[C@@H]1CCCN(c2cncc(NC(=O)C(C)(C)c3ccc(C(C)(C)C(=O)O)cc3)n2)C1 [Example 39, (R)-2-(4-(1-((6-(3-(2-ethoxyphenoxy)piperidin-1-yl)pyrazin-2-yl)amino)-2-methyl-1-oxopropan-2-yl)phenyl)-2-methylpropanoic acid] | 770
10 | CCOc1ccccc1O[C@@H]1CCCN(c2cncc(NC(=O)/C=C/c3ccc(C(=O)O)cc3)n2)C1 [Example 41, (R,E)-4-(3-((6-(3-(2-ethoxyphenoxy)piperidin-1-yl)pyrazin-2-yl)amino)-3-oxoprop-1-en-1-yl)benzoic acid] | 3100
11 | CCOc1ccccc1O[C@@H]1CCCN(c2cncc(NC(=O)/C(C)=C/c3ccc(C(=O)O)cc3)n2)C1 [Example 42, (R,E)-4-(3-((6-(3-(2-ethoxyphenoxy)piperidin-1-yl)pyrazin-2-yl)amino)-2-methyl-3-oxoprop-1-en-1-yl)benzoic acid] | 1300
12 | CCOc1ccccc1O[C@@H]1CCCN(c2cncc(NC(=O)C(C)Cc3ccc(C(=O)O)cc3)n2)C1 (stereo partly drawn) [Example 43, 4-(3-((6-((R)-3-(2-ethoxyphenoxy)piperidin-1-yl)pyrazin-2-yl)amino)-2-methyl-3-oxopropyl)benzoic acid] | 330
13 | CCOc1ccccc1O[C@@H]1CCCN(c2cncc(NC(=O)CCc3ccc(C(=O)O)c(F)c3)n2)C1 [Example 44, (R)-4-(3-((6-(3-(2-ethoxyphenoxy)piperidin-1-yl)pyrazin-2-yl)amino)-3-oxopropyl)-2-fluorobenzoic acid] | 170
14 | CCOc1ccccc1O[C@@H]1CCCN(c2cncc(NC(=O)CCc3ccc(C(=O)O)c(C)c3)n2)C1 [Example 45, (R)-4-(3-((6-(3-(2-ethoxyphenoxy)piperidin-1-yl)pyrazin-2-yl)amino)-3-oxopropyl)-2-methylbenzoic acid] | 150
15 | CCOc1ccccc1O[C@@H]1CCCN(c2cncc(NC(=O)CCc3ccc(C(=O)O)c(OC)c3)n2)C1 [Example 46, (R)-4-(3-((6-(3-(2-ethoxyphenoxy)piperidin-1-yl)pyrazin-2-yl)amino)-3-oxopropyl)-2-methoxybenzoic acid] | 510
16 | CCOc1ccccc1O[C@@H]1CCCN(c2cncc(NC(=O)CCc3ccc(C(=O)O)c(Cl)c3)n2)C1 [Example 47, (R)-2-chloro-4-(3-((6-(3-(2-ethoxyphenoxy)piperidin-1-yl)pyrazin-2-yl)amino)-3-oxopropyl)benzoic acid] | 310
17 | CCOc1ccccc1O[C@@H]1CCCN(c2cncc(NC(=O)CCc3cccc(C(=O)O)c3)n2)C1 [Example 48, (R)-3-(3-((6-(3-(2-ethoxyphenoxy)piperidin-1-yl)pyrazin-2-yl)amino)-3-oxopropyl)benzoic acid] | 710
18 | CCOc1ccccc1O[C@@H]1CCCN(c2cncc(NC(=O)CCc3ccc(CC(=O)O)cc3)n2)C1 [Example 49, (R)-2-(4-(3-((6-(3-(2-ethoxyphenoxy)piperidin-1-yl)pyrazin-2-yl)amino)-3-oxopropyl)phenyl)acetic acid] | 100
19 | CCOc1ccccc1O[C@@H]1CCCN(c2cncc(NC(=O)CCc3ccc(CC(N)=O)cc3)n2)C1 [Example 50] | 9.6
20 | CCOc1ccccc1O[C@@H]1CCCN(c2cncc(NC(=O)CCc3ccc(C(C)(C)C(=O)O)cc3)n2)C1 [Example 51, (R)-2-(4-(3-((6-(3-(2-ethoxyphenoxy)piperidin-1-yl)pyrazin-2-yl)amino)-3-oxopropyl)phenyl)-2-methylpropanoic acid] | 33
21 | CCOc1ccccc1O[C@@H]1CCCN(c2cncc(NC(=O)CCc3ccc(C4(C(=O)O)CC4)cc3)n2)C1 [Example 52, (R)-1-(4-(3-((6-(3-(2-ethoxyphenoxy)piperidin-1-yl)pyrazin-2-yl)amino)-3-oxopropyl)phenyl)cyclopropane-1-carboxylic acid] | 66
22 | CCOc1ccccc1O[C@@H]1CCCN(c2cncc(NC(=O)CCc3cc(F)c(C(=O)O)c(F)c3)n2)C1 [Example 53, (R)-4-(3-((6-(3-(2-ethoxyphenoxy)piperidin-1-yl)pyrazin-2-yl)amino)-3-oxopropyl)-2,6-difluorobenzoic acid] | 390
23 | CCOc1ccccc1O[C@@H]1CCCN(c2cncc(NC(=O)CCc3cc(Cl)c(C(=O)O)c(Cl)c3)n2)C1 [Example 54, (R)-2,6-dichloro-4-(3-((6-(3-(2-ethoxyphenoxy)piperidin-1-yl)pyrazin-2-yl)amino)-3-oxopropyl)benzoic acid] | 88
24 | CCOc1ccccc1O[C@@H]1CCCN(c2cncc(NC(=O)CCc3cc(C)c(C(=O)O)c(C)c3)n2)C1 [Example 55, (R)-4-(3-((6-(3-(2-ethoxyphenoxy)piperidin-1-yl)pyrazin-2-yl)amino)-3-oxopropyl)-2,6-dimethylbenzoic acid] | 280
25 | CCOc1ccccc1O[C@@H]1CCCN(c2cncc(NC(=O)CCc3ccc(N4CCC(C(=O)O)CC4)cc3)n2)C1 [Example 56, (R)-1-(4-(3-((6-(3-(2-ethoxyphenoxy)piperidin-1-yl)pyrazin-2-yl)amino)-3-oxopropyl)phenyl)piperidine-4-carboxylic acid] | 820
26 | CCOc1ccccc1O[C@@H]1CCCN(c2cncc(NC(=O)c3cc(F)c(N4CCC(C(=O)O)CC4)c(F)c3)n2)C1 [Example 57] | 5300
